Measurements reported in patent US11396517B1, “Exo-aza spiro inhibitors of menin-MLL interaction” (Janssen Pharmaceutica NV, priority 2017, dated 2022).

Tests used:
[1] = tested on: MV-4-11; experiment: Proliferation assay A (spheroid assay) MV-4-11; type: cell-based, human; details: MV-4-11 cells, 8 d, AUC of confluence against time, absolute IC50, read-out: (3a) Spheroid assay MV-4-11 (IC50(μM)) Assay A
Procedure: (§1) 3a) Proliferation Assay A
(§2) The anti-proliferative effect of menin/MLL protein/protein interaction inhibitor test compounds was assessed in human leukemia cell lines. The cell lines MV-4-11 and MOLM14 harbor MILL translocations and express the MILL fusion proteins MLL-AF4 and MLL-AF9, respectively, as well as the wildtype protein from the second allele. […] K562 was used as a control cell line containing two MLL wildtype alleles in order to exclude compounds that display general cytotoxic effects.
(§3) MV-4-11 and MOLM14 were cultured in RPMI-1640 (Sigma Aldrich) supplemented with 10% fetal bovine serum (HyClone), 2 mM L-glutamine (Sigma Aldrich) and 50 μg/ml gentamycin (Gibco). K562 were propagated in RPMI-1640 (Sigma Aldrich) supplemented with 20% fetal bovine serum (HyClone), 2 mM L-glutamine (Sigma Aldrich) and 50 μg/ml gentamycin (Gibco).
(§4) In order to assess the anti-proliferative effects, 1,500 MV-4-11, 300 MOLM14 or 750 K562 cells were seeded in 200 μl media per well in 96-well round bottom, ultra-low attachment plates (Costar, catalogue number 7007). Cell seeding numbers were chosen based on growth curves to ensure linear growth throughout the experiment. Test compounds were added at different concentrations and the DMSO content was normalized to 0.3%. Cells were incubated for 8 d at 37° C. and 5% CO2. Spheroid like growth was monitored in real-time by live-cell imaging (IncuCyteZOOM, Essenbio, 4× objective) acquiring one image every four hours for 8 d. Confluence (%) as a measure of spheroid size was determined using an integrated analysis tool.
(§5) In order to determine the cumulative effect of the test compounds over time, the area under the curve (AUC) in a plot of confluence against time was calculated. Confluence at the beginning of the experiment (t=0) was used as baseline for the AUC calculation.
(§6) Absolute IC50 values were calculated according to the following procedure: % Control=(AUC sample/AUC control)*100
(§7) AUC control mean AUC of control values (cells without compound/DMSO as vehicle control)
(§8) A non-linear curve fit was applied using the least squares (ordinary) fit method to the plot of % control versus compound concentration. Based on this, the absolute IC50 value (half maximal inhibitory concentration of the test compound causing an anti-proliferative effect of 50% relative to the vehicle control) was calculated.

[2] = target: T1, menin (Homo sapiens, UniProt O00255, T541A); experiment: Menin/MLL homogenous time-resolved fluorescence (HTRF) assay; type: binding; details: location 2; read-out: (2) location 2 Menin HTRF assay (IC50 (nM))
T1 construct: Menin (a.a. 1-610-6×his tag)
T1 sequence (O00255 with tags, fused parts or gaps T541A): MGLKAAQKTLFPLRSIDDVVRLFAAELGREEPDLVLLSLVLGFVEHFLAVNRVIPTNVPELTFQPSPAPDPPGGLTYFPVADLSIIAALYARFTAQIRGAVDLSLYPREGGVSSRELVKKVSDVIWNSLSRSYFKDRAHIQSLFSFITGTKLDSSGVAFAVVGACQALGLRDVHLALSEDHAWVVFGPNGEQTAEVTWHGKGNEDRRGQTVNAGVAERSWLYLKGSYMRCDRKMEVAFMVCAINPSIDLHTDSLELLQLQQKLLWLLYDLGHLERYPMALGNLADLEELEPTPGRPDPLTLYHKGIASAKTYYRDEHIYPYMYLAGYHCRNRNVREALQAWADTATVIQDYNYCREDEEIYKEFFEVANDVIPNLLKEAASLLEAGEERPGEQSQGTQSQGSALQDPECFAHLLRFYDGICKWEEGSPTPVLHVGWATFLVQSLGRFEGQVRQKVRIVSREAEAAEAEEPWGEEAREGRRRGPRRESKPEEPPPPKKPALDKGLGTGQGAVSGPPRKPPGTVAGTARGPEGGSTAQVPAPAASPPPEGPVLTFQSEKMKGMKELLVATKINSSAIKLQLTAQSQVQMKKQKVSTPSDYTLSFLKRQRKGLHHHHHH
How it was run: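 Terbium-labeled menin (aa 1-610, His-tagged; […]) preincubated 5 min with compound, then 75 nM FITC-MBM1 peptide for 15 min, ambient, Tris pH 7.5, 0.5% DMSO. HTRF 520/490 ratio; 11-point 3-fold titration; IC50 from % inhibition fit.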

[3] = tested on: MOLM14; experiment: Proliferation assay A (spheroid assay) MOLM14; type: cell-based, human; details: Homo sapiens, MOLM-14, 192 h, MOLM14 cells, 8 d, AUC of confluence against time, absolute IC50; read-out: (3a) Spheroid assay MOLM14 (IC50(μM)) Assay A
Procedure: as §1, §2, §3, §4, §5, §6, §7, §8

[4] = tested on: MOLM14; experiment: Proliferation assay B (spheroid assay) MOLM14; type: cell-based, human; details: MOLM14 cells, confluence at day 8, absolute IC50, read-out: (3b) Spheroid assay MOLM14 (IC50(μM)) Assay B
How it was run: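 Leukemia cells grown as spheroids in ultra-low-attachment round-bottom wells with compound at 0.3% DMSO for 8 d at 37 °C. Confluence imaged at day 8 as spheroid size, normalized between DMSO and 1 μM staurosporine controls; absolute IC50 from sigmoidal fit with bounds fixed at 0 and 100%.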

[5] = tested on: MV-4-11; experiment: Proliferation assay B (spheroid assay) MV-4-11; type: cell-based, human; details: MV-4-11 cells, confluence at day 8, absolute IC50, read-out: (3b) Spheroid assay MV-4--11 (IC50(μM)) Assay B
Procedure: 3b) Proliferation Assay B
as §2, §3
as §4, with “MOLM14 cells” for “MOLM14”, “measured” for “monitored”, “images at day 8.” for “one image every four hours for 8 d.”
In order to determine the effect of the test compounds over time, the confluence in each well as a measure of spheroid size, was calculated. Confluence […] at the beginning of the experiment (t=0) was used as baseline for the calculation.
Absolute IC50 values were calculated as percent change in confluence as follows:
LC=Low Control: cells treated with 1 μM of the cytotoxic agent staurosporin
HC=High Control: Mean confluence (%) (DMSO treated cells) % Effect=100−(100*(Sample−LC)/(HC−LC))
To determine the IC50 a curve is fitted to the plot of % Effect vs Log 10 compound concentration using a sigmoidal fit with a variable slope and fixing the maximum to 100% and the minimum to 0%.

Row | SMILES | IC50 ([1]; Homo sapiens, MV4-11, 192 h) [µM] | IC50 [2] [nM] | IC50 [3] [µM] | IC50 ([4]; Homo sapiens, MOLM-14, 192 h) [µM] | IC50 ([5]; Homo sapiens, MV4-11, 192 h) [µM] | IC50 [1] [µM] | IC50 [4] [µM] | IC50 [5] [µM]
1 | N#CCc1ccc(NC2CC3(CCN(c4ncnc5sc(CC(F)(F)F)cc45)C3)C2)cc1F (mixture of isomers) [Compound 168] | 1.65 | 20.8 | 2.52 |  |  |  |  | 
2 | FC(F)(F)Cc1cc2c(N3CCC4(CC(Nc5ccc6cc(C(F)(F)F)[nH]c6c5)C4)C3)ncnc2s1 (mixture of isomers) [Compound 314] | 3.83 | 27.1 | > 3.75 |  |  |  |  | 
3 | O=c1[nH]c2ccc(NC3CC4(CCN(c5ncnc6sc(CC(F)(F)F)cc56)C4)C3)cc2o1 (mixture of isomers) [Compound 322] | > 3.75 | 51.4 |  | > 3.75 | > 3.75 |  |  | 
4 | CNc1nc(N2CCC3(CC(Nc4ccc(CC#N)cc4)C3)C2)c2cc(CC(F)(F)F)sc2n1 (mixture of isomers) [Compound 390] | 2.84 | 14.6 | > 3.75 |  |  |  |  | 
5 | N#CCc1ccc(NC2CCC3(C2)CN(c2ncnc4sc(CC(F)(F)F)cc24)C3)cc1 (racemic) [Compound 278] | > 3.75 | 22.8 | > 3.75 |  |  |  |  | 
6 | N#CCc1ccc(NC2CCC3(C2)CN(c2nc(N)nc4sc(CC(F)(F)F)cc24)C3)cc1 (racemic) [Compound 387] | > 3.75 | 94.2 |  | > 3.75 | > 3.75 |  |  | 
7 | CNC(=O)c1ccc(NC2CC3(CCN(c4ncnc5sc(CC(F)(F)F)cc45)C3)C2)cc1 (single isomer, unassigned) [Compound 94] |  | 3.6 |  | 0.44 | 0.06 | 0.04 |  | 
8 | N#CCc1ccc(N[C@@H]2CC[C@@]3(CCN(c4ncnc5sc(CC(F)(F)F)cc45)C3)C2)cc1 (stereo in doubt) [Compound 144] |  | 9.3 |  | 2.77 | 1.4 |  |  | 
9 | N#CCc1ccc(N[C@H]2CC[C@@]3(CCN(c4ncnc5sc(CC(F)(F)F)cc45)C3)C2)cc1 (stereo in doubt) [Compound 145] |  | 22.6 |  | > 3.75 | 3.55 |  |  | 
10 | N#CCc1ccc(N[C@H]2CC[C@]3(CCN(c4ncnc5sc(CC(F)(F)F)cc45)C3)C2)cc1 (stereo in doubt) [Compound 147] |  | 45.3 |  | 2.9 | 2.07 |  |  | 
11 | NC(=O)Cn1c(=O)[nH]c2cc(CNC3CCC4(C3)CN(c3ncnc5sc(CC(F)(F)F)cc35)C4)ccc21 (stereo not drawn) [Compound 53, 2-(2-oxo-5-(((2-(6-(2,2,2-trifluoroethyl)thieno[2,3-d]-pyrimidin-4-yl)-2-azaspiro[3.4]octan-6-yl)amino)methyl)-2,3-dihydro-1H-benzo[d]-imidazol-1-yl)acetamide] |  | 8.7 |  | > 3.75 | > 3.75 |  |  | 
12 | CNC(=O)c1ccc(NC2CC3(CCN(c4ncnc5sc(CC(F)(F)F)cc45)C3)C2)nc1 (stereo not drawn) [Compound 70] |  | 2.7 |  | 1.08 | 0.3 |  |  | 
13 | CN1CCC(Oc2cc(NC3CC4(CCN(c5ncnc6sc(CC(F)(F)F)cc56)C4)C3)ccc2C#N)CC1 (stereo not drawn) [Compound 81] |  | 6.8 |  | 0.65 | 0.43 |  |  | 
14 | CN1CCC(Nc2cc(NC3CC4(CCN(c5ncnc6sc(CC(F)(F)F)cc56)C4)C3)ccc2C#N)CC1 (stereo not drawn) [Compound 82] |  | 73.6 |  | 0.93 | 1.14 |  |  | 
15 | CNC(=O)c1ccc(NC2CCC3(C2)CN(c2ncnc4sc(CC(F)(F)F)cc24)C3)cc1 (stereo not drawn) [Compound 96] |  | 43.4 |  | 1.09 | 1.02 |  |  | 
16 | N#CCc1ccc(NC2CCC3(CCN(c4ncnc5sc(CC(F)(F)F)cc45)C3)C2)cc1F (stereo not drawn) [Compound 129] |  | 34.3 |  | > 3.75 | 3.81 |  |  | 
17 | CC(C)(C#N)c1ccc(NC2CCC3(CCN(c4ncnc5sc(CC(F)(F)F)cc45)C3)C2)cc1 (stereo not drawn) [Compound 130] |  | 67.1 |  | > 3.75 | > 3.75 |  |  | 
18 | N#CC1(c2ccc(NC3CCC4(CCN(c5ncnc6sc(CC(F)(F)F)cc56)C4)C3)cc2)CC1 (stereo not drawn) [Compound 131] |  | 49.1 |  | > 3.75 | 3.3 |  |  | 
19 | CNC(=O)c1ccc(NC2CCC3(CCN(c4ncnc5sc(CC(F)(F)F)cc45)C3)C2)cc1 (stereo not drawn) [Compound 133] |  | 4.1 |  | > 3.75 | 1.41 |  |  | 
20 | FC(F)(F)Cc1cc2c(N3CCC4(CC(Nc5ccccn5)C4)C3)ncnc2s1 (stereo not drawn) [Compound 151] |  | 31 |  | 2.48 | 2.03 |  |  | 
21 | FC(F)(F)Cc1cc2c(N3CCC4(CC(Nc5ccncc5)C4)C3)ncnc2s1 (stereo not drawn) [Compound 154] |  | 13 |  |  |  |  | 2.35 | 0.67
22 | FC(F)(F)Cc1cc2c(N3CC4(CCC(NC5(c6ccccc6)CC5)C4)C3)ncnc2s1 (stereo not drawn) [Compound 282] |  | 92.8 |  | > 3.75 | > 3.75 |  |  | 
23 | Cc1cc2ccc(NC3CCC4(C3)CN(c3ncnc5sc(CC(F)(F)F)cc35)C4)cc2[nH]1 (stereo not drawn) [Compound 289] |  | 42.7 |  | > 3.75 | > 3.75 |  |  | 
24 | O=c1[nH]c2ccc(NC3CCC4(C3)CN(c3ncnc5sc(CC(F)(F)F)cc35)C4)cc2o1 (stereo not drawn) [Compound 295] |  | 97.7 |  | > 3.75 | > 3.75 |  |  | 
25 | O=c1[nH]c2ccc(NC3CCC4(C3)CN(c3ncnc5sc(CC(F)(F)F)cc35)C4)cc2[nH]1 (stereo not drawn) [Compound 298] |  | 54.3 |  | > 3.75 | > 3.75 |  |  | 
